# Measured values: ChEMBL document CHEMBL2331078, “Quantitative purity-activity relationships of natural products: the case of anti-tuberculosis active triterpenes from Oplopanax horridus” (2013)
# The source made the active and inactive calls. The calls are words filed in the database; no cut-off is given here.
# What was measured:
# [1] = tested on: Mycobacterium tuberculosis; test: Antimycobacterial activity against Mycobacterium tuberculosis; format: functional
# [2] = tested on: Mycobacterium tuberculosis; test: Antimycobacterial activity against Mycobacterium tuberculosis H37Rv ATCC 27294 by Alamar blue assay; format: functional, organism-based
SMILES,MIC [1],Activity [2]
C=C(C)[C@@H]1CC[C@]2(C(=O)O)CC[C@]3(C)[C@H](CC[C@@H]4[C@@]5(C)CC[C@@H](O)[C@@](C)(C(=O)O)[C@@H]5CC[C@]43C)[C@@H]12,54 mg/L,Active
CC1(C)CC[C@]2(C(=O)O)CC[C@]3(C)C(=CC[C@@H]4[C@@]5(C)CC[C@@H](O)[C@@](C)(C(=O)O)[C@@H]5CC[C@]43C)[C@@H]2C1,–,Active
C=C(C)[C@@H]1CC[C@]2(C(=O)O)CC[C@]3(C)[C@H](CC[C@@H]4[C@@]5(C)CC[C@H](O)C(C)(C)[C@@H]5CC[C@]43C)[C@@H]12 [BETULINIC ACID],62 mg/L,–
CC1(C)CC[C@]2(C(=O)O)CC[C@]3(C)C(=CC[C@@H]4[C@@]5(C)CC[C@H](O)C(C)(C)[C@@H]5CC[C@]43C)[C@@H]2C1 [OLEANOLIC_ACID],29 mg/L,–
